Data published in publication PMC10800708, “Efficacies and ADME properties of redox active methylene blue and phenoxazine analogues for use in new antimalarial triple drug combinations with amino-artemisinins” (Frontiers in Pharmacology, 2024).
Read-outs that look alike come from different tables or passages of the source.

How the values were obtained:
[1] = Lipophilicity, 1-octanol/phosphate buffer pH 7.4; format: physicochemical; settings: read-out: Lipophilicity LogD7.4
[2] = tested on: Plasmodium falciparum DD2; assay: Parasite lactate dehydrogenase (pLDH) assay over 72 h, CQ-resistant strain; format: cell-based; settings: for Resistance index: IC50 (resistant strain)/IC50 (sensitive strain), DD2/NF54; for IC50: Plasmodium falciparum, CQ-resistant DD2, pLDH 72 h, n = 3, read-out: Plasmodium falciparum IC50 DD2
Method: (§1) The assay was performed in quadruplicate. The data were analyzed by nonlinear regression analysis using the GraphPad PRISM version 5.00 program to determine the IC50 of each compound.

[3] = Metabolic stability in mouse liver microsomes; format: in vitro ADME
Method: Eq. 4 Predicted t1/2 t1/2=−0.693/λ (4) Where λ is the slope of the Ln % parent remaining vs. time curve. • v. Plasma protein binding. Plasma protein binding was determined in pooled human plasma using an ultracentrifugation method. Stock solutions of test compounds (10 mM) were diluted in phosphate buffer and spiked into plasma in deep well 96-well plates (10 µM). An aliquot of each compound was immediately precipitated with ice cold acetonitrile containing the internal standard carbamazepine (0.1 μM). These served as total concentration samples. After incubation in a water bath at 37°C for 1 h, the samples were transferred to ultracentrifuge tubes in duplicate and centrifuged for 4 h at 37°C and 30,000 g (Optima L-80XP, Beckman). Following centrifugation, the supernatant was transferred to the plate containing the total concentration samples and precipitated with ice cold acetonitrile containing the internal standard. Analyte concentrations of all compounds were determined via LC-MS/MS (reverse phase Gemini NX-C18 column and Shimadzu HPLC coupled with an AB Sciex 3200 Q TRAP MS) as described above. • vi. Metabolic stability. A 5-point metabolic stability assay in human and mouse liver microsomes were performed in duplicate in 96-well plates. […] The cofactor NADPH was added, and the reactions were subsequently stopped at time points 5, 10, 30 and 60 min by removal of an aliquot and quenching with ice cold acetonitrile containing the internal standard. The supernatant of all samples was analysed via LC-MS/MS analysis (reverse phase Gemini NX-C18 column and Shimadzu HPLC and AB Sciex 3200 Q TRAP MS) as described above.

[4] = Plasma stability in pooled human plasma; format: in vitro ADME; settings: for half-life: 37°C
Method: . […] The aqueous mobile phase was water with 0.1% formic acid and the organic mobile phase was acetonitrile with 0.1% formic acid. The gradient method has a flow rate of 0.8 mL/min, with a total run time of 2.5 min starting at 5% organic and increasing to 95% at 1.4 min, holding for 40 s before returning to 5% to re-equilibrate the column. • ii. Lipophilicity. Stock solutions (10 mM) of compounds were diluted to 100 μM in 96-well deep-well plate containing 300 µL of 1-octanol and 300 µL of phosphate buffer at pH 7.4. The plate was agitated on an orbital shaker at 750 rpm for 2 h. The organic and buffer layers of each well were transferred separately to a new analysis plate. The samples were analysed with the HPLC diode array detection as described for kinetic solubility. Samples from both layers were analysed to determine LogD7.4 values. • iii. Passive permeability. A parallel artificial membrane permeation assay (PAMPA) was used to assess the passive permeability of compounds with a 96-well MultiScreen filter plate ([…] pore size, Millipore). The filter plate was precoated with 5% hexadecane in hexane. Stock solutions of compounds were diluted to 1 mM in a donor buffer (pH 6.5). Lucifer yellow was added to the apical wells of the precoated MultiScreen plate containing compound donor solution. The donor buffer solutions were spiked with each test compound (1 mM). The acceptor-buffer solution was prepared by adding 10 μL DMSO to 990 μL acceptor buffer (pH 7.4) and 250 μL were added to the basolateral (acceptor) wells. The donor plate was carefully inserted into the acceptor plate and incubated at room temperature for 4 h. After the incubation period, 50 μL of samples from the acceptor plate were transferred to a round bottom 96-well plate, together with 30 μL of donor buffer for matrix matching. Theoretical equilibrium samples for each test compound were prepared by adding 150 μL of donor solutions to 250 μL acceptor solutions and left at room temperature. These theoretical equilibrium samples represent complete transfer of the compound into the donor well. For the theoretical equilibrium samples, 80 μL were added to the analysis plate. Lastly, 160 μL of the internal standard carbamazepine (0.1 μM) was added to all acceptor and equilibrium samples. A portion of the sample containing Lucifer yellow was analyzed on a BioRad iMarkTM Microplate Absorbance Reader (BioRad, Hercules, CA, United States; […]. Samples were analysed using reverse phase Gemini NX-C18 column (5 μm, 2.1 mm × 50 mm) with a Shimadzu HPLC coupled with an AB Sciex 3200 Q TRAP MS). […]. Plasma stability. Stock solutions of compounds in DMSO (10 mM) were used to spike pooled human plasma. […]
. Plasma protein binding was determined in pooled human plasma using an ultracentrifugation method. […]

[5] = tested on: Plasmodium falciparum NF54; assay: Parasite lactate dehydrogenase (pLDH) assay over 72 h, CQ-sensitive strain; format: cell-based
Method: as §1

[6] = CQ-sensitive NF54, pLDH 72 h, n = 3, read-out: Plasmodium falciparum IC50 NF54
[7] = P. falciparum NF54, read-out: NF54 IC50 (dotted line in concentration-time figures)

Structure (SMILES) | logD at 2 h [1] | Resistance index [2] | IC50 [2] | CLint scaled [3] | half-life [4] | Parent remaining in plasma after 3 h ([4]; 3 h) | IC50 [5, 6] | IC50 [5, 7]
CCN(CC)c1ccc2nc3ccc(=[N+](CC)CC)cc-3sc2c1 [AD01] | 0.2 | 0.5 | 0.0119 ± 0.0028 µM | 80.6 mL/min/kg | 1.42 h | 21% | 0.0231 ± 0.0025 µM | 0.023 µM
CCN(CC)c1ccc2nc3c4ccccc4/c(=N\c4ccccn4)cc-3oc2c1 [PhX6] | 1 | 0.4 | 0.0162 ± 0.0024 µM | 88.2 mL/min/kg | > 2.5 h |  | 0.0418 ± 4e-05 µM | 0.041 µM
